Consider 4 molecules from PubChem BioAssay AID330 (DTP/NCI, 2004).

Values joined by “and” are separate entries in the source; they are usually repeats but may differ in a detail not shown here. Equal values may be shown once. Toxic doses and inconclusive results are not listed.

This assay has as its system P388 leukemia ip, CD2F1 mice, survival T/C. As to the kind of experiment: NCI In Vivo Anticancer Drug Screen. Data for tumor model P388 Leukemia (intraperitoneal) in CD2F1 (CDF1) mice. The conditions noted are these: endpoint: median survival time, higher = longer survival. The method in brief: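 Mice carrying the transplanted tumor received test compound or vehicle. Survival was recorded in each group, and the value is the treated-group measurement divided by that of the vehicle-treated control group.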

On to `Nc1ncnc2c1ncn2C1OC(COP(=O)(O)O)C(O)C1O` (centres undefined), for which the T/C (dose: 12.5 mg/kg/injection, schedule: Q01DX009 (ip), vehicle: saline) is 99 % of control; the T/C (dose: 18.8 mg/kg/injection, schedule: Q03HX016 (ip), vehicle: saline) was 123 % of control; the T/C (dose: 18.8 mg/kg/injection, schedule: Q03HX024 (ip), vehicle: saline) was 113 % of control; the T/C (dose: 20.0 mg/kg/injection, schedule: Q01DX009 (ip), vehicle: water) was 96 % of control; the T/C (dose: 25.0 mg/kg/injection, schedule: Q01DX009 (ip), vehicle: saline) was 102 % of control; the T/C (dose: 25.0 mg/kg/injection, schedule: Q01DX009 (ip), vehicle: suspension in saline) was 104 % of control. The T/C by setting is: (dose: 40.0 mg/kg/injection, schedule: Q01DX009 (ip), vehicle: water) 103 % of control and 105 % of control; (dose: 50.0 mg/kg/injection, schedule: Q01DX005 (ip), vehicle: water) 101 % of control; (dose: 50.0 mg/kg/injection, schedule: Q01DX005 (iv), vehicle: water) 102 % of control; (dose: 50.0 mg/kg/injection, schedule: Q01DX009 (ip), vehicle: saline) 94 % of control and 98 % of control; (dose: 50.0 mg/kg/injection, schedule: Q01DX009 (ip), vehicle: suspension in saline) 100 % of control; (dose: 50.0 mg/kg/injection, schedule: Q01DX009 (ip), vehicle: water) 113 % of control. In addition, the T/C (dose: 75.0 mg/kg/injection, schedule: Q03HX016 (ip), vehicle: saline) was 152 % of control; the T/C (dose: 75.0 mg/kg/injection, schedule: Q03HX024 (ip), vehicle: saline) was 150 % of control; the T/C (dose: 80.0 mg/kg/injection, schedule: Q01DX009 (ip), vehicle: water) was 108 % of control and 116 % of control; the T/C (dose: 90.0 mg/kg/injection, schedule: Q03HX024 (ip), vehicle: water) is 122 % of control; the T/C (dose: 100.0 mg/kg/injection, schedule: Q01DX005 (ip), vehicle: water) was 122 % of control; the T/C (dose: 100.0 mg/kg/injection, schedule: Q01DX005 (iv), vehicle: water) is 104 % of control. Besides, the T/C was 101 % of control and 96 % of control (dose: 100.0 mg/kg/injection, schedule: Q01DX009 (ip), vehicle: saline); 96 % of control (dose: 100.0 mg/kg/injection, schedule: Q01DX009 (ip), vehicle: suspension in saline); 99 % of control (dose: 100.0 mg/kg/injection, schedule: Q01DX009 (oral), vehicle: water); 156 % of control (dose: 100.0 mg/kg/injection, schedule: Q03HX016 (ip), vehicle: saline); 160 % of control (dose: 100.0 mg/kg/injection, schedule: Q03HX016 (ip), vehicle: water); 150 % of control (dose: 100.0 mg/kg/injection, schedule: Q03HX024 (ip), vehicle: saline). The T/C is, setting by setting: (dose: 100.0 mg/kg/injection, schedule: Q03HX024 (ip), vehicle: water) 151 % of control; (dose: 100.0 mg/kg/injection, schedule: Q04DX003 (ip), vehicle: water) 120 % of control; (dose: 100.0 mg/kg/injection, schedule: Q08DX002 (ip), vehicle: water) 112 % of control; (dose: 150.0 mg/kg/injection, schedule: Q03HX016 (ip), vehicle: saline) 167 % of control; (dose: 150.0 mg/kg/injection, schedule: Q03HX024 (ip), vehicle: saline) 171 % of control; (dose: 160.0 mg/kg/injection, schedule: Q01DX009 (ip), vehicle: water) 109 % of control. Moreover, the T/C (dose: 200.0 mg/kg/injection, schedule: Q01DX005 (iv), vehicle: water) was 102 % of control; the T/C (dose: 200.0 mg/kg/injection, schedule: Q01DX009 (ip), vehicle: saline) is 92 % of control and 101 % of control; the T/C (dose: 200.0 mg/kg/injection, schedule: Q01DX009 (ip), vehicle: suspension in saline) was 106 % of control; the T/C (dose: 200.0 mg/kg/injection, schedule: Q01DX009 (oral), vehicle: water) is 104 % of control; the T/C (dose: 200.0 mg/kg/injection, schedule: Q03HX016 (ip), vehicle: water) is 183 % of control; the T/C (dose: 200.0 mg/kg/injection, schedule: Q03HX024 (ip), vehicle: water) was 186 % of control. Moreover, the T/C was 121 % of control (dose: 200.0 mg/kg/injection, schedule: Q04DX003 (ip), vehicle: water); 113 % of control (dose: 200.0 mg/kg/injection, schedule: Q08DX002 (ip), vehicle: water); 106 % of control (dose: 400.0 mg/kg/injection, schedule: Q01DX005 (iv), vehicle: water); 104 % of control (dose: 400.0 mg/kg/injection, schedule: Q01DX009 (ip), vehicle: saline); 153 % of control (dose: 400.0 mg/kg/injection, schedule: Q01DX009 (ip), vehicle: water); 98 % of control (dose: 400.0 mg/kg/injection, schedule: Q03HX009 (oral), vehicle: water). Further, the T/C by setting is: (dose: 400.0 mg/kg/injection, schedule: Q03HX015 (oral), vehicle: water) 103 % of control; (dose: 400.0 mg/kg/injection, schedule: Q03HX016 (ip), vehicle: water) 230 % of control; (dose: 400.0 mg/kg/injection, schedule: Q03HX024 (ip), vehicle: water) 210 % of control; (dose: 400.0 mg/kg/injection, schedule: Q04DX003 (ip), vehicle: water) 119 % of control; (dose: 400.0 mg/kg/injection, schedule: Q08DX002 (ip), vehicle: water) 118 % of control; (dose: 800.0 mg/kg/injection, schedule: Q01DX005 (ip), vehicle: water) 158 % of control. The T/C was 111 % of control (dose: 800.0 mg/kg/injection, schedule: Q01DX005 (iv), vehicle: water); 164 % of control (dose: 800.0 mg/kg/injection, schedule: Q01DX009 (ip), vehicle: water); 90 % of control (dose: 800.0 mg/kg/injection, schedule: Q01DX009 (oral), vehicle: water); 167 % of control (dose: 800.0 mg/kg/injection, schedule: Q03HX009 (ip), vehicle: water); 105 % of control (dose: 800.0 mg/kg/injection, schedule: Q03HX009 (oral), vehicle: water); 100 % of control (dose: 800.0 mg/kg/injection, schedule: Q03HX015 (oral), vehicle: water). Also, the T/C reads like this: (dose: 800.0 mg/kg/injection, schedule: Q03HX016 (ip), vehicle: water) 260 % of control; (dose: 800.0 mg/kg/injection, schedule: Q08DX002 (ip), vehicle: water) 124 % of control; (dose: 1600.0 mg/kg/injection, schedule: Q01DX009 (oral), vehicle: water) 99 % of control; (dose: 1600.0 mg/kg/injection, schedule: Q03HX009 (ip), vehicle: water) 197 % of control; (dose: 1600.0 mg/kg/injection, schedule: Q03HX009 (oral), vehicle: water) 98 % of control; (dose: 1600.0 mg/kg/injection, schedule: Q03HX015 (oral), vehicle: water) 100 % of control. Also, the T/C reads like this: (dose: 3200.0 mg/kg/injection, schedule: Q03HX009 (oral), vehicle: water) 96 % of control; (dose: 3200.0 mg/kg/injection, schedule: Q03HX015 (oral), vehicle: water) 102 % of control.
As for `C=C1C=CN(C(C)=O)C(OC(C)=O)C1SC(C)(C)C` (centres undefined), the T/C is 97 % of control (dose: 60.0 mg/kg/injection, schedule: Q01DX005 (ip), vehicle: saline with Tween-80); 95 % of control (dose: 120.0 mg/kg/injection, schedule: Q01DX005 (ip), vehicle: saline with Tween-80); 97 % of control (dose: 240.0 mg/kg/injection, schedule: Q01DX005 (ip), vehicle: saline with Tween-80).
With `CC(=O)NC(CCl)(OC(C)=O)C(=O)OCc1ccc([N+](=O)[O-])cc1` (centres undefined), the T/C is 102 % of control (dose: 12.5 mg/kg/injection, schedule: Q01DX001 (ip), vehicle: Klucel (hydroxypropylcellulose) (HPC)); 108 % of control (dose: 25.0 mg/kg/injection, schedule: Q01DX001 (ip), vehicle: Klucel (hydroxypropylcellulose) (HPC)); 100 % of control (dose: 50.0 mg/kg/injection, schedule: Q01DX001 (ip), vehicle: Klucel (hydroxypropylcellulose) (HPC)); 106 % of control (dose: 100.0 mg/kg/injection, schedule: Q04DX003 (ip), vehicle: saline with Tween-80); 120 % of control (dose: 200.0 mg/kg/injection, schedule: Q04DX003 (ip), vehicle: saline with Tween-80); 100 % of control (dose: 400.0 mg/kg/injection, schedule: Q04DX003 (ip), vehicle: saline with Tween-80).
As to `Cc1cc(Cl)ccc1N=Cc1ccc(C=Nc2ccc(Cl)cc2C)cc1`, the T/C by setting is: (dose: 12.5 mg/kg/injection, schedule: Q01DX009 (ip), vehicle: Klucel (hydroxypropylcellulose) (HPC)) 94 % of control; (dose: 25.0 mg/kg/injection, schedule: Q01DX009 (ip), vehicle: Klucel (hydroxypropylcellulose) (HPC)) 95 % of control; (dose: 50.0 mg/kg/injection, schedule: Q01DX009 (ip), vehicle: Klucel (hydroxypropylcellulose) (HPC)) 99 % of control.
